In the supplement of paper PMC7840683:
Where a name gives a salt, the structure may show the parent alone. ± gives the standard deviation of the averaged measurements.

Tested on: HepaRG
Assay: LDH release cytotoxicity, % of total lysis control; higher = more cytotoxic
Conditions: 48 h
Summary of the method: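 Single-lot HepaRG cells in collagen I-coated 96-well plates were treated for 48 h in serum-free induction medium containing 0.5% DMSO with test chemicals in eight-point half-log series up to 100 µM. For total lysis, wells received 0.1% Triton X. LDH in 50 µL spent medium was assayed by resorufin fluorescence with CytoTox-ONE. Percent cytotoxicity was normalized to the on-plate vehicle and total lysis controls, with duplicates averaged.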

For CCCOC(=O)NCCCN(C)C [Propamocarb hydrochloride], the LDH release cytotoxicity (0.03162 µM) was 0.518 ± 0.36%, the LDH release cytotoxicity (0.1 µM) was -0.315 ± 0.73% and the LDH release cytotoxicity (0.3162278 µM) was -0.112 ± 0.25%. The LDH release cytotoxicity (1 µM) was -0.746 ± 0.025%, the LDH release cytotoxicity (3.16228 µM) was 0 ± 0.72% and the LDH release cytotoxicity (10 µM) was 0.683 ± 0.9%. The LDH release cytotoxicity (31.6228 µM) was 0.664 ± 0.54% and the LDH release cytotoxicity (100 µM) was 0.411 ± 0.061%.

Compound CCC(=O)Nc1ccc(Cl)c(Cl)c1 [Propanil] has an LDH release cytotoxicity (0.03162 µM) of -0.963 ± 0.057%, an LDH release cytotoxicity (0.1 µM) of -0.318 ± 1.1% and an LDH release cytotoxicity (0.3162278 µM) of -0.815 ± 0.19%. The LDH release cytotoxicity (1 µM) was -1.73 ± 0.56%, the LDH release cytotoxicity (3.16228 µM) was -0.844 ± 0.53% and the LDH release cytotoxicity (10 µM) was 0.163 ± 0.67%. For the same compound, the LDH release cytotoxicity (31.6228 µM) was 0.666 ± 0.14% and the LDH release cytotoxicity (100 µM) was 4.33 ± 0.28%.

Work on C#CCOS(=O)OC1CCCCC1Oc1ccc(C(C)(C)C)cc1 (centres undefined) [Propargite] yielded an LDH release cytotoxicity (0.03162 µM) of -0.16 ± 0.35%, an LDH release cytotoxicity (0.1 µM) of -0.456 ± 1.3% and an LDH release cytotoxicity (0.3162278 µM) of -0.537 ± 0.23%. It also gave an LDH release cytotoxicity (1 µM) of 0.246 ± 0.3%, an LDH release cytotoxicity (3.16228 µM) of -0.49 ± 0.87% and an LDH release cytotoxicity (10 µM) of -0.575 ± 0.68%. For the same compound, the LDH release cytotoxicity (31.6228 µM) was 62.8 ± 4% and the LDH release cytotoxicity (100 µM) was 83.83 ± 0.65%.

Work on CC(C)Nc1nc(Cl)nc(NC(C)C)n1 [Propazine] yielded an LDH release cytotoxicity (0.03162 µM) of -0.771 ± 1.3%, an LDH release cytotoxicity (0.1 µM) of -0.918 ± 1.2% and an LDH release cytotoxicity (0.3162278 µM) of -0.266 ± 0.027%. It also gave an LDH release cytotoxicity (1 µM) of -0.0277 ± 0.68%, an LDH release cytotoxicity (3.16228 µM) of -0.787 ± 0.95% and an LDH release cytotoxicity (10 µM) of -0.398 ± 0.52%. For the same compound, the LDH release cytotoxicity (31.6228 µM) was -0.397 ± 0.52% and the LDH release cytotoxicity (100 µM) was -0.828 ± 0.37%.

Work on CCNP(=S)(OC)OC(C)=CC(=O)OC(C)C (centres undefined) [Propetamphos] yielded an LDH release cytotoxicity (0.03162 µM) of 0.305 ± 0.75%, an LDH release cytotoxicity (0.1 µM) of -0.308 ± 0.074% and an LDH release cytotoxicity (0.3162278 µM) of -1.36 ± 0.17%. The LDH release cytotoxicity (1 µM) was -0.42 ± 0.63%, the LDH release cytotoxicity (3.16228 µM) was -0.261 ± 0.68% and the LDH release cytotoxicity (10 µM) was 0.0856 ± 0.23%. For the same compound, the LDH release cytotoxicity (31.6228 µM) was -1.69 ± 0.097% and the LDH release cytotoxicity (100 µM) was 2.91 ± 0.14%.

CCCC1COC(Cn2cncn2)(c2ccc(Cl)cc2Cl)O1 (centres undefined) [Propiconazole] showed an LDH release cytotoxicity (0.03162 µM) of -1.15 ± 0.41%, an LDH release cytotoxicity (0.1 µM) of -1.4 ± 0.43% and an LDH release cytotoxicity (0.3162278 µM) of -1.43 ± 0.71%. It also gave an LDH release cytotoxicity (1 µM) of -0.956 ± 0.14%, an LDH release cytotoxicity (3.16228 µM) of -0.902 ± 0.17% and an LDH release cytotoxicity (10 µM) of -0.927 ± 1%. The LDH release cytotoxicity (31.6228 µM) was 12.7 ± 3.1% and the LDH release cytotoxicity (100 µM) was 26.8 ± 4%.

Work on CNC(=O)Oc1ccccc1OC(C)C [Propoxur] yielded an LDH release cytotoxicity (0.03162 µM) of -0.314 ± 0.63%, an LDH release cytotoxicity (0.1 µM) of -0.642 ± 0.96% and an LDH release cytotoxicity (0.3162278 µM) of 0.0787 ± 1.4%. The LDH release cytotoxicity (1 µM) was -0.886 ± 0.72%, the LDH release cytotoxicity (3.16228 µM) was 0.431 ± 0.29% and the LDH release cytotoxicity (10 µM) was -0.355 ± 1.1%. The LDH release cytotoxicity (31.6228 µM) was -0.0411 ± 0.99% and the LDH release cytotoxicity (100 µM) was 2.29 ± 1.8%.

With CCCOc1nn(C(=O)NS(=O)(=O)c2ccccc2C(=O)OC)c(=O)n1C [Propoxycarbazone-sodium] the LDH release cytotoxicity (0.03162 µM) was 0.284 ± 0.84%, the LDH release cytotoxicity (0.1 µM) was 0.427 ± 0.12% and the LDH release cytotoxicity (0.3162278 µM) was -0.758 ± 0.093%. For the same compound, the LDH release cytotoxicity (1 µM) was -0.962 ± 0.093%, the LDH release cytotoxicity (3.16228 µM) was -0.435 ± 0.032% and the LDH release cytotoxicity (10 µM) was -0.39 ± 0.58%. For the same compound, the LDH release cytotoxicity (31.6228 µM) was -0.185 ± 0.43% and the LDH release cytotoxicity (100 µM) was 0.864 ± 0.4%.

CCCOC(=O)c1cc(O)c(O)c(O)c1 [Propyl gallate] was tested, and the LDH release cytotoxicity (0.031623 µM) was 0.488 ± 2.3%, the LDH release cytotoxicity (0.1 µM) was -3.35 ± 1.2% and the LDH release cytotoxicity (0.316228 µM) was -3.75 ± 0.63%. It also gave an LDH release cytotoxicity (1 µM) of -4.27 ± 0.64%, an LDH release cytotoxicity (3.16228 µM) of -3.65 ± 0.077% and an LDH release cytotoxicity (10 µM) of -3.8 ± 0.18%. It also gave an LDH release cytotoxicity (31.6228 µM) of -4.52 ± 0.15% and an LDH release cytotoxicity (100 µM) of -3.34 ± 1.5%.

CCCc1ccccc1 [Propylbenzene] showed an LDH release cytotoxicity (0.03162 µM) of 0.0897 ± 0.19%, an LDH release cytotoxicity (0.1 µM) of 0.202 ± 1% and an LDH release cytotoxicity (0.3162278 µM) of -0.202 ± 0.32%. For the same compound, the LDH release cytotoxicity (1 µM) was -0.857 ± 0.72%, the LDH release cytotoxicity (3.16228 µM) was 0.305 ± 0.066% and the LDH release cytotoxicity (10 µM) was -0.0719 ± 0.68%. The LDH release cytotoxicity (31.6228 µM) was 1.09 ± 2% and the LDH release cytotoxicity (100 µM) was 0.766 ± 0.2%.

For CCCOC(=O)c1ccc(O)cc1 [Propylparaben], the LDH release cytotoxicity (0.03162 µM) was -0.197 ± 0.47%, the LDH release cytotoxicity (0.1 µM) was -0.55 ± 1.1% and the LDH release cytotoxicity (0.3162278 µM) was -0.664 ± 0.59%. The LDH release cytotoxicity (1 µM) was -0.711 ± 0.26%, the LDH release cytotoxicity (3.16228 µM) was -0.982 ± 0.64% and the LDH release cytotoxicity (10 µM) was -0.514 ± 0.63%. The LDH release cytotoxicity (31.6228 µM) was -0.541 ± 0.47% and the LDH release cytotoxicity (100 µM) was 0.018 ± 1.1%.

Compound C#CC(C)(C)NC(=O)c1cc(Cl)cc(Cl)c1 [Propyzamide] has an LDH release cytotoxicity (0.03162 µM) of -1.48 ± 1.2%, an LDH release cytotoxicity (0.1 µM) of -0.106 ± 0.45% and an LDH release cytotoxicity (0.3162278 µM) of -1.18 ± 0.17%. It also gave an LDH release cytotoxicity (1 µM) of -0.534 ± 0.42%, an LDH release cytotoxicity (3.16228 µM) of -1.13 ± 0.49% and an LDH release cytotoxicity (10 µM) of -0.249 ± 0.6%. The LDH release cytotoxicity (31.6228 µM) was -0.378 ± 0.49% and the LDH release cytotoxicity (100 µM) was 1.49 ± 0.29%.

Compound CC1CN(N=Cc2cccnc2)C(=O)N=N1 (centres undefined) [Pymetrozine] has an LDH release cytotoxicity (0.03162 µM) of 4.48 ± 0.29%, an LDH release cytotoxicity (0.1 µM) of 4.64 ± 1.1% and an LDH release cytotoxicity (0.3162278 µM) of 4.33 ± 1.2%. The LDH release cytotoxicity (1 µM) was 3.28 ± 0.56%, the LDH release cytotoxicity (3.16228 µM) was 5.3 ± 1.3% and the LDH release cytotoxicity (10 µM) was 4.29 ± 1.6%. For the same compound, the LDH release cytotoxicity (31.6228 µM) was 6.57 ± 0.73% and the LDH release cytotoxicity (100 µM) was 9.47 ± 2.1%.

Work on COC(=O)N(OC)c1ccccc1COc1ccn(-c2ccc(Cl)cc2)n1 [Pyraclostrobin] yielded an LDH release cytotoxicity (0.03162 µM) of -1.44 ± 1.1%, an LDH release cytotoxicity (0.1 µM) of -1.43 ± 0.92% and an LDH release cytotoxicity (0.3162278 µM) of -1.17 ± 0.68%. For the same compound, the LDH release cytotoxicity (1 µM) was -2.24 ± 0.11%, the LDH release cytotoxicity (3.16228 µM) was -1.81 ± 0.71% and the LDH release cytotoxicity (10 µM) was -0.283 ± 0.49%. It also gave an LDH release cytotoxicity (31.6228 µM) of 6.12 ± 1.7% and an LDH release cytotoxicity (100 µM) of 56.9 ± 7.3%.

CCOC(=O)COc1cc(-c2nn(C)c(OC(F)F)c2Cl)c(F)cc1Cl [Pyraflufen-ethyl] gave an LDH release cytotoxicity (0.03162 µM) of 0.0981 ± 1.6%, an LDH release cytotoxicity (0.1 µM) of -2.14 ± 0.14% and an LDH release cytotoxicity (0.3162278 µM) of -0.894 ± 0.076%. For the same compound, the LDH release cytotoxicity (1 µM) was -0.96 ± 1.1%, the LDH release cytotoxicity (3.16228 µM) was -1.01 ± 0.6% and the LDH release cytotoxicity (10 µM) was -0.751 ± 0.049%. The LDH release cytotoxicity (31.6228 µM) was 0.45 ± 0.72% and the LDH release cytotoxicity (100 µM) was 1.13 ± 1.6%.

Compound c1cc2ccc3cccc4ccc(c1)c2c34 [Pyrene] has an LDH release cytotoxicity (0.03162 µM) of 0.277 ± 0.94%, an LDH release cytotoxicity (0.1 µM) of -1.34 ± 0.14% and an LDH release cytotoxicity (0.3162278 µM) of -1.54 ± 0.5%. The LDH release cytotoxicity (1 µM) was -0.813 ± 0.25%, the LDH release cytotoxicity (3.16228 µM) was -0.783 ± 0.011% and the LDH release cytotoxicity (10 µM) was -0.0329 ± 0.0016%. It also gave an LDH release cytotoxicity (31.6228 µM) of -0.764 ± 0.4% and an LDH release cytotoxicity (100 µM) of -0.178 ± 0.085%.

CC(C)(C)c1ccc(CSc2cnn(C(C)(C)C)c(=O)c2Cl)cc1 [Pyridaben] showed an LDH release cytotoxicity (0.03162 µM) of -0.363 ± 1.1%, an LDH release cytotoxicity (0.1 µM) of -1.38 ± 0.78% and an LDH release cytotoxicity (0.3162278 µM) of -1.47 ± 1.4%. It also gave an LDH release cytotoxicity (1 µM) of -1.89 ± 1.1%, an LDH release cytotoxicity (3.16228 µM) of 17.6 ± 2.4% and an LDH release cytotoxicity (10 µM) of 26.6 ± 3.7%. For the same compound, the LDH release cytotoxicity (31.6228 µM) was 26.9 ± 1.5% and the LDH release cytotoxicity (100 µM) was 34.6 ± 7%.

Cc1ncc(CO)c(CO)c1O [Pyridoxine] was tested, and the LDH release cytotoxicity (0.03162 µM) was -3.02 ± 0.18%, the LDH release cytotoxicity (0.1 µM) was -2.28 ± 1.7% and the LDH release cytotoxicity (0.3162278 µM) was -2.33 ± 0.68%. The LDH release cytotoxicity (1 µM) was -2.01 ± 0.55%, the LDH release cytotoxicity (3.16228 µM) was -2.69 ± 0.98% and the LDH release cytotoxicity (10 µM) was -2.47 ± 0.94%. For the same compound, the LDH release cytotoxicity (31.6228 µM) was -2.46 ± 1.2% and the LDH release cytotoxicity (100 µM) was 1.11 ± 0.51%.
